Laboratory results taken from US8802702B2, “Compounds for reducing drug resistance and uses thereof” (The General Hospital Corporation, priority 2009, dated 2014).
“Also recorded” adds a separate entry of the source.

Columns and labels:
[1] = system: MDR cell lines where MDR1 (Pgp1) is highly expressed; assay: Reversal of chemoresistance across panel of MDR cell lines with various anti-cancer agents
Experimental: Screening conditions in drug resistant cells were optimized in 96-well plates for optimal growth conditions, small molecular compound and drug concentration and assay times prior to screening. On day 1, drug resistant cells were seeded at 2×10^4 cells/well on 96-well plates and labeled with plates A, B, and incubated for 24 hr at 37° C. On day 2, plate A was treated with a test compound at 1 μM to each well without paclitaxel; Plate B was treated with both a test compound and paclitaxe at specifically prescribed concentrations. From day 4 to day 6, fresh medium was replaced with necessity as described above and evaluated for cytotoxicity under the microscope. On Day 6, the number of viable cells was evaluated for cytotoxicity in any wells under the microscope manually and final results were determined via […]96™ AQ One Solution Cell Cytotoxicity Assay (Promega, Madison, Wis.) by a SPECTRAIVIAX.™ Microplate Spectrophotometer (Molecular Devices, Sunnyvale, Calif.).
The general format was designed for screening the small molecular compound library and identifying novel drug resistant inhibitor. These include evaluation of each small molecular compound through a well studied multidrug resistant cell line SKOV-3TR. The experiments were conducted in two control plates (A and B) and one experimental plate (C) to permit plate-to-plate comparisons (FIG. 1). The control plates (plate A and B) were used to evaluate cytotoxicity of paclitaxel and small molecular compound itself, and to exclude compound that were lethal to the cells in the absence of chemotherapy drug. […] because the goal of this study was to identify small molecular compound that can reverse drug resistance and not to determine cell toxicity. […] Small molecular compound that were associated with cell survival in plate A and plate B and death in plate C were identified as “hits” and selected for further study.
Furthermore, other cell lines with non-Pgp1 mediated MDR mechanisms were tested (H69/AR cells that express MRP1, but not Pgp1, and MCF-7 MX cells that express BCRP, but not Pgp1) to evaluate the specificity of NSC23925.

[2] = molecular target: purified recombinant human Pgp1 membrane protein (Homo sapiens, UniProt P08183)
Experimental: Luminescence was read on a BMG LABTECH Polarstar Optima Luminometer. The decrease in luminescence of untreated samples compared to samples plus Na3VO4(ARLUbasal) represents basal Pgp1 ATPase activity. […] E: Effect of NSC23925 on expression of Pgp1 in paclitaxel resistant cells. The paclitaxel resistant cell line SKOV-3TR was treated with different concentration of NSC23925 for 48 h. Equal amounts (20 μg protein) of total cell lysates were used for each sample. Pgp1 expression was determined by Western blot as described in the Examples section below.
The Pgp-Glo™ Assay Systems (Promega) provide the necessary reagents for performing luminescent P-glycoprotein (Pgp)-ATPase assays. The ATPase assay provides a rapid, […], compound-independent measure of the concentration-dependence of any interaction of a drug with Ppg1. […] Luminescence was read on a BMG LABTECH Polarstar Optima Luminometer. The decrease in luminescence of NT samples compared to samples plus Na3VO4 (ΔRLUbasal) represents basal Pgp-ATPase activity.
Pgp-ATPase assay is a valuable screening tool for determining if a drug interacts with Pgp.

[3] = system: Pgp1 substrate retention in SKOV-3TR cells; assay: Fluorescence microscopy of Pgp substrate accumulation; type: cell-based, human
Experimental: FIG. 8 depicts the increase in Pgp1 substrate accumulation in SKOV-3TR by NSC23925. Images of SKOV-3TR cells incubated with various fluorescent substrates of Pgp1 in the presence (bottom panel) and absence (top panel) of NSC23925. For visualization of effects of NSC23925 on the intracellular retention of rhodamine 123, mitoxantrone, Dioc2, doxorobucin, and calcein AM, 10,000 resistant cells were seeded on to Lab-Tek 8-well chamber slides on the day prior to the assay. SKOV-3TR cells were then incubated with either 1 μM rhodamine 123, 10 μM mitoxantrone, 0.1 μM Dioc2, 10 μM doxorubicin or 0.25 μM calcein AM either alone or in the presence of NSC23925 in RPMI 1640 media for one hour at 37° C. Image were acquired a Nikon Eclipse Ti-U fluorescence microscope (Nikon Corp.) equipped with a SPOT RT digital camera (Diagnostic Instruments, Inc., Sterling Heights, Mich.).
For visualization of the effects of NSC23925 on the intracellular retention of calcein AM, doxorubicin, and mitoxantrone, 10,000 resistant cells were seeded on to Lab-Tek 8-well chamber slides on the day prior to the assay. […] Images were acquired by Nikon Eclipse Ti-U fluorescence microscope (Nikon Corp.) equipped with a SPOT RT digital camera (Diagnostic Instruments, Inc., Sterling Heights, Mich.).

[4] = system: SKOV-3TR and KHOSR2 cells; assay: Flow cytometry of intracellular doxorubicin retention; type: cell-based, human; conditions: 5 μM doxorubicin, NSC23925 0.5 μM, 1 hour
Experimental: FIG. 9 depicts the intracellular retention of doxorubicin from multidrug resistant SKOV-3TR and KHOSR2 cells in the presence of 5 μM doxorubicin with or without treatment of NSC23925 (0.5 μM). Cells were treated for 1 hour before the flow cytometry analysis.

[5] = value = anti-cancer drug used in conjunction

Sequence of purified recombinant human Pgp1 membrane protein (P08183 whole entry): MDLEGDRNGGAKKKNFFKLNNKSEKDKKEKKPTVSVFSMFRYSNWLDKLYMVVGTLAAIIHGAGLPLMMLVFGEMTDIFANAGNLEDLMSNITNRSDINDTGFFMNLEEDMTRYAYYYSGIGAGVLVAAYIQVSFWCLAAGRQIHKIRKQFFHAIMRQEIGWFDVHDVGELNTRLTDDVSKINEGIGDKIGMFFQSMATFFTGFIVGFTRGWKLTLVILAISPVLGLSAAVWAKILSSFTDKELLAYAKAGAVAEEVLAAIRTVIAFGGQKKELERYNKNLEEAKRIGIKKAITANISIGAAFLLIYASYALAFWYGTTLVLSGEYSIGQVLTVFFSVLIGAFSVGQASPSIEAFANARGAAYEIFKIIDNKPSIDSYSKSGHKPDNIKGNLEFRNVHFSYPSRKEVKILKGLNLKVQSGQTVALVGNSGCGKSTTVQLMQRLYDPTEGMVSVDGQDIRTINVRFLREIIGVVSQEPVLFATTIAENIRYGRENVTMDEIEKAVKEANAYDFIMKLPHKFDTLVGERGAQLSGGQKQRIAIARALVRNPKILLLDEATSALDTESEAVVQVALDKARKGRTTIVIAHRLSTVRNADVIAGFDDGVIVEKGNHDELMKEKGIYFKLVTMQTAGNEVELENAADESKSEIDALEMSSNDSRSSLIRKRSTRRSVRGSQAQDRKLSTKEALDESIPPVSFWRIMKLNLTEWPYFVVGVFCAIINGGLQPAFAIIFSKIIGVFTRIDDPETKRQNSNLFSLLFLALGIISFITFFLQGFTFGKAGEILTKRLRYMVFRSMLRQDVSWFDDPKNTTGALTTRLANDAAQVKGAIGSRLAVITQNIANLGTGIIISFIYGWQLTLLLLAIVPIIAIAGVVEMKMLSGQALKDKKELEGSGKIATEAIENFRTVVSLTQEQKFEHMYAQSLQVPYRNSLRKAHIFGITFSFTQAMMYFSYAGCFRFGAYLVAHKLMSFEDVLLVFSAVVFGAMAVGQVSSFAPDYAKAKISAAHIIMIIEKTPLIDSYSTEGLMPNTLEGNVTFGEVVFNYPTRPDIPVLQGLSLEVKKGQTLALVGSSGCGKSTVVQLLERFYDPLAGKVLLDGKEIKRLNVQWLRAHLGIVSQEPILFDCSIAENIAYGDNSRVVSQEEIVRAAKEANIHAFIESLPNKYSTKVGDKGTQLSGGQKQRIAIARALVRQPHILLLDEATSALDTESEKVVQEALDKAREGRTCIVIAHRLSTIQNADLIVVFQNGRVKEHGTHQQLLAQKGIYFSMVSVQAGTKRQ

SMILES: COc1ccc(-c2cc(C(O)C3CCCCN3)c3ccccc3n2)cc1 (stereo not drawn) [NSC23925, (2-(4-methoxyphenyl)quinolin-4-yl)(piperidin-2-yl)methanol]
- Reversal of chemoresistance in tumor types where MDR1 is highly expressed ([1]; SKOV-3TR, OVCAR8TR, MCF-7TR, MESSA/Dx5, KHOS R2, U-2OSDR): reverses chemoresistance
- Effect on cytotoxicity of cisplatin and methotrexate ([1]; agents unaffected by MDR1 mechanisms): did not alter the cytotoxicity
- Reverse Drug Resistance by NSC23925: Decreased drug resistance (to the anti-cancer drug named in the cell) [1, 5]: Vincristine; also recorded: Gemcitabine; also recorded: ET-743; also recorded: PM00104; also recorded: Paclitaxel; also recorded: Docetaxel; also recorded: Doxorubicin; also recorded: Daunorubicin
- Reverse Drug Resistance by NSC23925: No effect (on the anti-cancer drug named in the cell) [1, 5]: Cisplatin; also recorded: Carboplatin; also recorded: Topotecan; also recorded: Methotrexate
- Reversal of chemoresistance in conjunction with anti-cancer agents ([1]; with paclitaxel, docetaxel, doxorubicin, daunorubicin, gemcitabine, vincristine, ET-743 or PM00104): significant reversal of chemoresistance
- Stimulation of Pgp-ATPase activity [2]: > 30%
- Fluorescence of SKOV-3TR cells incubated with fluorescent Pgp substrates ([3]; 1 μM NSC23925, one hour at 37° C.): highly fluorescent
- Efflux of Pgp1 substrates Rhodamine 123, mitoxantrone, dioc 2 and doxorubicin from SKOV-3TR ([3]; fluorescence): inhibited the efflux
- Accumulation of doxorubicin by flow cytometric analysis [4]: increases the accumulation of doxorubicin
